Paper PMC3672142, “A Binding-Site Barrier Affects Imaging Efficiency of High Affinity Amyloid-Reactive Peptide Radiotracers In Vivo” (PLoS ONE, 2013)
No end group written: not given here.

Legend:
[1] = tested on: AA amyloid; design: species or system H2-Ld-huIL-6 Tg Balb/c transgenic mice; conditions: mouse, in vivo, iv
Description: AA amyloidosis was induced in H2-Ld-huIL-6 Tg Balb/c transgenic mice that constitutively express the human interleukin-6 transgene, [21] by iv administration of 10 µg of isolated amyloid enhancing factor (AEF – a suspension of AA amyloid fibril extract, [22]) in 100 µL of sterile phosphate-buffered saline (PBS). Mice used in these studies were 4–6 wk post induction. These studies were carried out in strict accordance with a protocol approved by the University of Tennessee Institutional Animal Care and Use Committee. All procedures were approved by the IACUC and were performed in accordance with the guidelines provided by OLAW and the Guide for the Care and Use of Laboratory Animals.
Mice, wild type or those with AA-amyloid, were injected iv in the lateral tail vein with ∼10 µg (∼150 µCi) of radioiodinated (^123I or ^125I) peptide p5, p5R, p5R(1–24) or p5R mixed with 1 mg of unlabeled p5R peptide. […]
Samples of muscle, liver, spleen, pancreas, kidneys, heart, stomach, small and large intestines and lung tissue were harvested post mortem from every mouse. Each sample was placed into a tared, plastic vial, weighed and the ^125I or ^123I radioactivity measured using an automated Wizard 3 gamma counter (1480 Wallac Gamma Counter, Perkin Elmer). The biodistribution data were expressed as % injected dose/g tissue (% ID/g). […]

[2] = tested on: cardiac and pancreatic amyloid; conditions: SAP imaging; no reference printed at this sentence (refs [14], [15] for SAP imaging); cited from earlier work
Text: Currently, there are no FDA-approved agents available in the USA for quantitative whole body imaging of visceral amyloid in vivo. […] However, there is no evidence that either this or the recently FDA-approved Aβ tracer Amyvid™ will facilitate detection of amyloid deposits in other visceral organs. Numerous amyloid-binding radiotracers have been described, e.g ...

Substance	radioactivity in liver, spleen, pancreas and intestines compared to WT mice [1]	detection of cardiac and pancreatic amyloid [2]
GGGYSRAQRAQARQARQAQRAQRAQARQARQ [p5R]	significant radioactivity seen in the liver, spleen, pancreas, and intestines as compared to the WT mice	
SAP: serum amyloid P component, used as 123I-SAP for planar scintigraphic imaging of amyloid		at best, poorly detected
